Reference: patent publication US11572402B2, “Method for promoting diversification of antibody variable region” (Chiome Bioscience Inc., priority 2017, dated 2023)

Tested on: hVEGF-A-#33 cell line
Assay: Screening for diversification-promoting compounds by FCM (hIgG+_hVEGF-A− population)
Format: cell-based, chicken
Settings: hVEGF-A-#33 cells expressing human IgG, versus negative control CS(−)
Description: Frozen stocks of the hVEGF-A #33 cell line and the hVEGF-A #44 cell line (3.0×10^6 cells) were each awaken with a CS(-) medium, using a 25 cm^2 Flask (Corning, 430639), and were then cultured in a CO2 incubator (SANYO CO2 Incubator MCO-20AIC, 39.5° C., 5% CO2). On the following day, the cells were seeded on a 6-well dish (Nunc, 140675) to a cell density of 1.0×10^4 cells/mL (wherein the cell concentration and the survival rate were measured using CASY cell counter (Nepa Gene)). The cells were cultured in a CS(+) medium, in the presence or absence of a PI3Kα inhibitor ([…]: 10 μM, PI3Kα Inhibitor 2: 500 nM). Moreover, after the cells had been cultured for 2 days, individual samples were subcultured under the same conditions to result in a cell density of 1.0×10^4 cells/mL. Further, after completion of the culture for 3 days, individual samples were subcultured under the same conditions to result in a cell density of 6.0×10^4 cells/mL, and the culture was continued. After completion of the culture for 2 days (Day 7 of the culture), individual samples were centrifuged to remove a supernatant, and the residue was then suspended in a CS(+) medium supplemented with 1 μM FK-506 (hereinafter referred to as a “CS/FK medium”). The suspension was centrifuged again to remove a supernatant. This washing step was carried out repeatedly twice, and individual samples were then suspended in a CS/FK medium supplemented with AF647-labeled hVEGF-A (10 nM) and 2,000-fold diluted Goat Anti-Human IgG-PE. The light was shielded, and the obtained suspension was then reacted at 4° C. for 30 min. After completion of the staining, the reaction mixture was washed with a CS/FK medium twice, and each sample was then suspended in the CS/FK medium. Thereafter, using FACS Aria Fusion (BD), FCM and single cell sorting was carried out. Dead cells were removed using FSC-SSC plot. A plot, in which the vertical axis indicated AF647 (AF647-labeled hVEGF-A) and the longitudinal axis indicated PE (Goat Anti-Human IgG-PE), was developed, and the percentage of PE+(hIgG+)/AF647-(hVEGF-A-) cells was then calculated. In order to make a comparison regarding the number of cells with improved antigen-binding ability according to Affinity Maturation under individual conditions, Affinity Maturation Gate was established according to the following criteria. First, the plot was converted to a contour plot in FCM analysis, and a trapezoid gate having an inclination that was in parallel with the contour of a population in which the most cells were gathered (hereinafter referred to as a “main population”) was established. […] At that time, the vertex of the trapezoid gate was set to be overlapped with the mean value MFI of the main population, and then, a cell population having low antigen-binding ability and a cell population having a low expression level of antibody were set not to enter the gate. The percentage of clones with improved antigen-binding ability was calculated by counting the number of cells existing in this Affinity Maturation Gate and then dividing the obtained value by the total number of the analyzed cells. […]

## COc1ccc2c(c1OC)N=C(NC(=O)c1cccnc1)N1CCN=C21 [PIK-90]
  percentage of hIgG+_hVEGF-A− cell population (diversification-promoting effect): increased in comparison to the negative control (CS(−))

## N#Cc1ccc(-c2c(-c3ncn[nH]3)sc(N3CCOCC3)c2C#N)c(F)c1 [PF-4989216]
  percentage of hIgG+_hVEGF-A− cell population (diversification-promoting effect): increased in comparison to the negative control (CS(−))

## Oc1cccc(-c2nc(N3CCOCC3)c3oc4ncccc4c3n2)c1 [PI-103]
  percentage of hIgG+_hVEGF-A− cell population (diversification-promoting effect): increased in comparison to the negative control (CS(−))

## O=C1NC(=O)/C(=C/c2ccc3nccc(-c4ccncc4)c3c2)S1 [GSK1059615]
  percentage of hIgG+_hVEGF-A− cell population (diversification-promoting effect): increased in comparison to the negative control (CS(−))
